Measured values as given in ChEMBL document CHEMBL4229482, “Design, synthesis and biological evaluation of novel spiro-pentacylamides as acetyl-CoA carboxylase inhibitors” (Bioorg Med Chem, 2018).

Tests used:
NCI-H1975 = assay: Antiproliferative activity against human NCI-H1975 cells after 48 hrs by MTT assay; format: functional, cell-based; settings: NCI-H1975, 48 h
Acetyl-CoA carboxylase 2 = Acetyl-CoA carboxylase 2 (Homo sapiens, UniProt O00763); assay: Inhibition of C-terminal His-tagged full length human ACC2 expressed in Baculovirus infected Sf9 insect cells using acetyl CoA as substrate preincubated for 15 mins followed by substrate addition and measured after 60 mins by ADP-Glo assay
Sequence of Acetyl-CoA carboxylase 2 (O00763 whole entry, the tested form may be a part): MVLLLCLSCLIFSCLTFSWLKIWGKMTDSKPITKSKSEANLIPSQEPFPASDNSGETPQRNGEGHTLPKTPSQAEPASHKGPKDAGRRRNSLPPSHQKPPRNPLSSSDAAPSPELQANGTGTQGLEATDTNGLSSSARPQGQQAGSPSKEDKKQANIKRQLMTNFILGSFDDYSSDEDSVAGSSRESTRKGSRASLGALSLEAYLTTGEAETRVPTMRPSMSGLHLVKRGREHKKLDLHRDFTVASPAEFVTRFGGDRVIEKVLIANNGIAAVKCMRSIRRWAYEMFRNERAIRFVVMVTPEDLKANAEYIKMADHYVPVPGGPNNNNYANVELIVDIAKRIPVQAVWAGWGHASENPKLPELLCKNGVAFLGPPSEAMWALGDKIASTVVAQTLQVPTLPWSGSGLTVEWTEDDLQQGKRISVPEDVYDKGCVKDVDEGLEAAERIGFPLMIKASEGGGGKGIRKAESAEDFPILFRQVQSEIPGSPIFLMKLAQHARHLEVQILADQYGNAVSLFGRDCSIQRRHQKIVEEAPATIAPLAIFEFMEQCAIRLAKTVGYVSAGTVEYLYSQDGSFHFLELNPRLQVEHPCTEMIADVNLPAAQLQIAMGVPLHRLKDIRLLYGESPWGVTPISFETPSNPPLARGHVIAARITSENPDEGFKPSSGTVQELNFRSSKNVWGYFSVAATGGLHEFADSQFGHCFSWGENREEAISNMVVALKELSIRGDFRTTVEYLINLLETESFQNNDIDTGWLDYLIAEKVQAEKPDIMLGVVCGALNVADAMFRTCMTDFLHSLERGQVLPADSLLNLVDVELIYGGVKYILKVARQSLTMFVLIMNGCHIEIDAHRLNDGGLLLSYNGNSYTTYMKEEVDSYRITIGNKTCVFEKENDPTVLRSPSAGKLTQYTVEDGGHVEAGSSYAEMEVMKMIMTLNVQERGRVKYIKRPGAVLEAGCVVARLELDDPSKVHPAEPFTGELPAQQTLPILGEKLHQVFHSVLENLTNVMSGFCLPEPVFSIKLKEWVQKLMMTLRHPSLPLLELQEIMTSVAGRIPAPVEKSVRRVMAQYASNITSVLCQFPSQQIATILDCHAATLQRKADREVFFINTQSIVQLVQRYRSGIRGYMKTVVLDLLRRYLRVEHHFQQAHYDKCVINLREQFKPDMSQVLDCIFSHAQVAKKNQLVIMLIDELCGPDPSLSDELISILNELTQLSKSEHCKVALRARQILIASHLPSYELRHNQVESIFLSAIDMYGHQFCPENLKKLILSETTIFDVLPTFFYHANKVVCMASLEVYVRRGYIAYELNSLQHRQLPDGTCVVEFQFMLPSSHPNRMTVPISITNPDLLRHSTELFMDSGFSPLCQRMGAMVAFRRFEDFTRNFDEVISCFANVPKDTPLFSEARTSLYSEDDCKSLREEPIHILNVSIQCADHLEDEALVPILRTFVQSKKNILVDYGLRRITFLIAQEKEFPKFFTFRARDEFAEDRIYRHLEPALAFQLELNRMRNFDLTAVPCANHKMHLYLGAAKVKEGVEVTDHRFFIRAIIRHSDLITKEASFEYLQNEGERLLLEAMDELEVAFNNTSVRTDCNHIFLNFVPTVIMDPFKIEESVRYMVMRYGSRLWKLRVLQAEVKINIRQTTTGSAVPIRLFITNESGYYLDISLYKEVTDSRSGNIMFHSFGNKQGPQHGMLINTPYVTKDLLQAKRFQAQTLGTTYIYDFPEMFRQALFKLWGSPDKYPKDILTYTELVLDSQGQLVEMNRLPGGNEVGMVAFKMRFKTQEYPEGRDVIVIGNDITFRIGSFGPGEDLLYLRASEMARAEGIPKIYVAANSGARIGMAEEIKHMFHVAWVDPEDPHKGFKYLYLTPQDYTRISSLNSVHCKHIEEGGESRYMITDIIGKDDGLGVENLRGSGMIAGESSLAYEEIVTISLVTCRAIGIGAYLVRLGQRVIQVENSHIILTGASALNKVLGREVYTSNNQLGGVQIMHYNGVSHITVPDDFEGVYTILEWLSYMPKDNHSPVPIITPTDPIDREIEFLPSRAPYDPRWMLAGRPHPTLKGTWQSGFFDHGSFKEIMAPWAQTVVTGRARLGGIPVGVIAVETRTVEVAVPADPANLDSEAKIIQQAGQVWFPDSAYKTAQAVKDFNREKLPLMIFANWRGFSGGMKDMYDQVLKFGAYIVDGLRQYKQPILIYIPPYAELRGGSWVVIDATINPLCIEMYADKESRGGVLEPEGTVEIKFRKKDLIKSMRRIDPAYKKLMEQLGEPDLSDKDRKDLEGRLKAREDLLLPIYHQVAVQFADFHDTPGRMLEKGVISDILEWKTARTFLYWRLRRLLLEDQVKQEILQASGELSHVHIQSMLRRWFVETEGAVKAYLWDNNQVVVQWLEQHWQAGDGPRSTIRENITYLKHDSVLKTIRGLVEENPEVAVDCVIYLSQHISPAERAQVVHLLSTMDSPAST

Acetyl-CoA carboxylase 1 = Acetyl-CoA carboxylase 1 (Homo sapiens, UniProt Q13085); assay: Inhibition of C-terminal His-tagged recombinant human ACC1 (1 to 2383 residues) expressed in Baculovirus infected Sf9 insect cells using acetyl CoA as substrate preincubated for 15 mins followed by substrate addition and measured after 60 mins by ADP-Glo assay
Caco-2 = assay: Antiproliferative activity against human Caco2 cells after 48 hrs by MTT assay; format: functional, cell-based; settings: Caco-2, 48 h
HCT-116 = assay: cells; settings: Homo sapiens, HCT-116, 48 h
SW-620 = assay: cells; settings: Homo sapiens, SW-620, 48 h
Description: Antiproliferative activity against human SW620 cells after 48 hrs by MTT assay

A549 = assay: cells; settings: Homo sapiens, A549, 48 h

IC50 (NCI-H1975) | IC50 (Acetyl-CoA carboxylase 2) | IC50 (Acetyl-CoA carboxylase 1) | IC50 (Caco-2) | IC50 (HCT-116) | IC50 (SW-620) | IC50 (A549) | SMILES
0.21 µM | 0.008 µM | 0.032 µM | 6.51 µM | 2.43 µM | 3.19 µM | 0.74 µM | Cc1cc(C(=O)N2CCC3(CC2)CC(=O)c2nn(C(C)(C)C)cc2O3)cc2cn[nH]c12
> 10 µM | 0.764 µM | 1.15 µM | > 10 µM | 6.21 µM | > 10 µM | 1.03 µM | CC(C)c1ccc(-c2nc3cc(C(=O)N4CCC5(CC4)CC(=O)N(c4ccc(C(F)(F)F)cc4)C5)ccc3[nH]2)cc1
– | > 5 µM | 4.92 µM | – | – | – | – | O=C(c1ccc2cccnc2c1)N1CCC2(CC1)CC(=O)N(c1ccc(C(F)(F)F)cc1)C2
– | 3.02 µM | 2.22 µM | – | – | – | – | Cc1nc2cc(C(=O)N3CCC4(CC3)CC(=O)N(c3ccc(C(F)(F)F)cc3)C4)ccc2[nH]1
– | > 5 µM | 3.56 µM | – | – | – | – | Cc1cc(C(=O)N2CCC3(CC2)CC(=O)N(c2ccc(C#N)cc2F)C3)cc2cn[nH]c12
> 10 µM | 0.944 µM | 1.2 µM | > 10 µM | 8.67 µM | > 10 µM | > 10 µM | Cc1cc(C(=O)N2CCC3(CC2)CC(=O)N(c2ccc(C(F)(F)F)cc2)C3)cc2cn[nH]c12
5.64 µM | 1.88 µM | 2.24 µM | > 10 µM | > 10 µM | > 10 µM | 2.11 µM | COC(=O)c1ccc(N2CC3(CCN(C(=O)c4cc(C)c5[nH]ncc5c4)CC3)CC2=O)cc1
– | > 5 µM | > 5 µM | – | – | – | – | O=C(c1ccc2[nH]ccc2c1)N1CCC2(CC1)CC(=O)N(c1ccc(C(F)(F)F)cc1)C2
– | 1.11 µM | 1.95 µM | – | 8.67 µM | 4.74 µM | > 10 µM | O=C(c1ccc2[nH]c3c(c2c1)CCCC3)N1CCC2(CC1)CC(=O)N(c1ccc(C(F)(F)F)cc1)C2
0.27 µM | 1.94 µM | 1.69 µM | > 10 µM | 4.21 µM | 1.82 µM | > 10 µM | CCCc1nc2cc(C(=O)N3CCC4(CC3)CC(=O)N(c3ccc(C(F)(F)F)cc3)C4)cc(C)c2[nH]1
– | 2.74 µM | 4.73 µM | – | – | – | – | O=C(c1ccc2cn[nH]c2c1)N1CCC2(CC1)CC(=O)N(c1ccc(C(F)(F)F)cc1)C2
– | 3.77 µM | 2.01 µM | – | – | – | – | Cc1cc(N2CC3(CCN(C(=O)c4cc(C)c5[nH]ncc5c4)CC3)CC2=O)ccc1C#N
0.72 µM | 0.976 µM | 1.05 µM | – | > 10 µM | 3.26 µM | 7.96 µM | O=C(c1ccc2[nH]c(-c3ccco3)nc2c1)N1CCC2(CC1)CC(=O)N(c1ccc(C(F)(F)F)cc1)C2
– | 3.48 µM | 4.27 µM | – | – | – | – | O=C(c1ccc2[nH]c3c(c2c1)CCC3)N1CCC2(CC1)CC(=O)N(c1ccc(C(F)(F)F)cc1)C2
– | 4.65 µM | 2.79 µM | – | – | – | – | Cc1cc(C(=O)N2CCC3(CC2)CC(=O)N(c2ccc(C(=O)O)cc2)C3)cc2cn[nH]c12
0.38 µM | 0.397 µM | 0.527 µM | 5.42 µM | 1.22 µM | 2.05 µM | 1.92 µM | O=C(c1ccc2[nH]c(-c3ccccc3)nc2c1)N1CCC2(CC1)CC(=O)N(c1ccc(C(F)(F)F)cc1)C2
– | > 5 µM | > 5 µM | – | – | – | – | O=C(c1ccc2ncccc2c1)N1CCC2(CC1)CC(=O)N(c1ccc(C(F)(F)F)cc1)C2
0.39 µM | 1.24 µM | 2.65 µM | > 10 µM | 7.64 µM | 7.24 µM | 3.49 µM | O=C(c1ccc2[nH]c(-c3ccncc3)nc2c1)N1CCC2(CC1)CC(=O)N(c1ccc(C(F)(F)F)cc1)C2
– | > 5 µM | > 5 µM | – | – | – | – | O=C(c1cnc2ccccc2c1)N1CCC2(CC1)CC(=O)N(c1ccc(C(F)(F)F)cc1)C2
– | > 5 µM | 3.99 µM | – | – | – | – | Cc1cc(C(=O)N2CCC3(CC2)CC(=O)N(c2ccc(C#N)cc2)C3)cc2cn[nH]c12
– | > 5 µM | 4.95 µM | – | – | – | – | O=C(c1ccc2cc[nH]c2c1)N1CCC2(CC1)CC(=O)N(c1ccc(C(F)(F)F)cc1)C2
